In patent US10399933B2, “Inhibitors of indoleamine-2,3-dioxygenase for the treatment of cancer” (BRISTOL-MYERS SQUIBB COMPANY, priority 2015, dated 2019):

target: human IDO1 (Homo sapiens, UniProt P14902); experiment: Human IDO-1 inhibitory activity in Hela cells (interferon-gamma stimulated); type: cell-based; set-up: endogenous in cells; host or cells: HeLa cells stimulated with interferon-gamma; conditions: 18 hours, unstimulated wells = 100% inhibition
Experimental: HeLa cells were seeded at 20,000 cells per 30 μL per well with RPMI/phenol red free media containing 10% FBS in a 384-well tissue culture plate (black with clear bottoms). 50 nL of compound was added to cells and incubated at 37° C. for one hour. 20 μL of the recombinant human Interferon-gamma (R&D System, Cat. #285-IF, at final concentration of 10 ng/ml) or recombinant murine Interferon-gamma (PEPROTECH® Inc., Cat. #315-05, final concentration of 5 ng/ml) was added to activate IDO signaling. The cells were incubated for 18 hours in 37° C. incubator with 5% CO2.
Compound treatment was stopped by adding 5 μl trichloroacetic acid to a final concentration of 3%. Subsequently, the cell plate was further incubated at 50° C. for 30 minute. An equal volume supernatant (20 μL) and 2% (w/v) Ehrlich reagent (4-dimethylaminobenzaldehyde) in glacial acetic acid were mixed in a new clear bottom 384-well plate. This plate was incubated at room temperature for 30 minutes. Absorbance at 490 nm was measured on Envision plate reader.
Compound IC50 values were calculated using counts from unstimulated (no INF-gamma treatment) wells as 100% inhibition. INF-gamma treatment without compound treatment as 0% inhibition.

human IDO1, sequence (P14902 whole entry): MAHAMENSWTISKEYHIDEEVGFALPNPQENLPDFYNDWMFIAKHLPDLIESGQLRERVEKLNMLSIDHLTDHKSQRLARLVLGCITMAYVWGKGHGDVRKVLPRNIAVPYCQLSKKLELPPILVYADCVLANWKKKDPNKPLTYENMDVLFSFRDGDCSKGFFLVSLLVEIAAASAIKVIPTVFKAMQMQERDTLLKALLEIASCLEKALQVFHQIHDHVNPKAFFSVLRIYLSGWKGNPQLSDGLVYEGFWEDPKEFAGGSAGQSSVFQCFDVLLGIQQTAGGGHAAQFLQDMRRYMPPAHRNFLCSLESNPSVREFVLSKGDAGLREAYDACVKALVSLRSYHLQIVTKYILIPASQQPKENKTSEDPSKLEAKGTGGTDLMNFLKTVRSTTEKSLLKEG

Row | IC50 | Compound
1 | > 50 nM | CCN(c1ccc([C@H](COC)CC(=O)O)cc1Nc1ccccc1C#N)C1CCOCC1 (single isomer, unassigned) [Example 406]
2 | < 50 nM | CCOc1cc(Nc2cc([C@H](COC)CC(=O)O)ccc2N(CC)C2CCOCC2)ccc1C#N (single isomer, unassigned) [Example 407]
3 | < 50 nM | CCN(c1ccc([C@H](COC)CC(=O)O)cc1Nc1ccc(C#N)c(OCC(F)F)c1)C1CCOCC1 (single isomer, unassigned) [Example 408]
4 | < 50 nM | CCN(c1ccc([C@H](COC)CC(=O)O)cc1Nc1ccc(C#N)c(OCC(F)(F)F)c1)C1CCOCC1 (single isomer, unassigned) [Example 409]
5 | < 5 nM | CCc1ccc(Nc2cc([C@H](COC)CC(=O)O)ccc2N(CC)C2CCOCC2)cc1 (single isomer, unassigned) [Example 411]
6 | < 5 nM | CCN(c1ccc([C@H](COC)CC(=O)O)cc1Nc1ccc(F)cc1)C1CCOCC1 (single isomer, unassigned) [Example 412]
7 | < 50 nM | CCN(c1ccc([C@H](COC)CC(=O)O)cc1Nc1ccc2nc(C)sc2c1)C1CCOCC1 (single isomer, unassigned) [Example 414]
8 | < 5 nM | CCN(c1ccc([C@H](COC)CC(=O)O)cc1Nc1ccc2c(c1)OC(F)(F)O2)C1CCOCC1 (single isomer, unassigned) [Example 415]
9 | < 50 nM | CCN(c1ccc([C@H](COC)CC(=O)O)cc1Nc1ccc(C#N)c(OC)c1)C1CCOCC1 (single isomer, unassigned) [Example 417]
10 | > 50 nM | CCN(c1ccc([C@H](COC)CC(=O)O)cc1Nc1ccc(C#N)c(C)n1)C1CCOCC1 (single isomer, unassigned) [Example 419]
11 | > 50 nM | CCN(c1ccc([C@H](COC)CC(=O)O)cc1Nc1ccc(S(=O)(=O)CC)cc1)C1CCOCC1 (single isomer, unassigned) [Example 421]

Second part, the compound before the results:

Row | Compound | IC50
12 | CCN(c1ccc([C@H](COC)CC(=O)O)cc1Nc1ccc(C#N)cc1F)C1CCOCC1 (single isomer, unassigned) [Example 392] | < 5 nM
13 | CCN(c1ccc([C@H](COC)CC(=O)O)cc1Nc1ccc(Cl)cn1)C1CCOCC1 (single isomer, unassigned) [Example 393] | < 50 nM
14 | CCN(c1ccc([C@H](COC)CC(=O)O)cc1Nc1ncc(Cl)cn1)C1CCOCC1 (single isomer, unassigned) [Example 394] | < 50 nM
15 | CCN(c1ccc([C@H](COC)CC(=O)O)cc1Nc1ncc(F)cn1)C1CCOCC1 (single isomer, unassigned) [Example 396] | > 50 nM
16 | CCN(c1ccc([C@H](COC)CC(=O)O)cc1Nc1cccc(OC(F)(F)C(F)F)c1)C1CCOCC1 (single isomer, unassigned) [Example 397] | > 50 nM
17 | CCN(c1ccc([C@H](COC)CC(=O)O)cc1Nc1ccc(Cl)cc1F)C1CCOCC1 (single isomer, unassigned) [Example 399] | < 5 nM
18 | CCN(c1ccc([C@H](COC)CC(=O)O)cc1Nc1ccc(F)cn1)C1CCOCC1 (single isomer, unassigned) [Example 400] | < 50 nM
19 | CCN(c1ccc([C@H](COC)CC(=O)O)cc1Nc1ccc(F)cc1F)C1CCOCC1 (single isomer, unassigned) [Example 402] | < 50 nM
20 | CCN(c1ccc([C@H](COC)CC(=O)O)cc1Nc1ccc(C#N)cc1C)C1CCOCC1 (single isomer, unassigned) [Example 404] | < 50 nM
21 | CCN(c1ccc([C@H](COC)CC(=O)O)cc1Nc1cccc(C#N)c1)C1CCOCC1 (single isomer, unassigned) [Example 405] | > 50 nM
22 | CCN(c1ccc([C@H](COC)CC(=O)O)cc1Nc1ccc(C#N)c(Cl)c1)C1CCOCC1 (single isomer, unassigned) [Example 418] | < 50 nM
23 | CCN(c1ccc([C@H](COC)CC(=O)O)cc1Nc1ccc(C#N)c(C(F)(F)F)c1)C1CCOCC1 (single isomer, unassigned) [Example 420] | > 50 nM
